According to patent US9783803B2, “Inhibition of NEAT1 for treatment of solid tumors” (VIB VZW, priority 2014, dated 2017):
Entries after “also recorded” stand apart in the source; their conditions may differ.

Columns and labels:
NEAT1 [1] = test: NEAT1 induction under low/chronic or high stress conditions; assay type: cell-based, human
From the text: FIGS. 4A-4F. NEAT1 is induced in human and mouse cells exposed to low stress conditions including exposure to the inducer of senescence aurora-kinase inhibitor AZD1152-HQPA (AZD; FIG. 4A), low doses of Rotenone (Rot; FIG. 4B) that promotes oxidative stress, low doses of doxorubicin (Doxo, FIG. 4C) and replicative stress-induced damage (RS; FIG. 4D).
It has been shown that p53 is induced in MEFs during passages as a response to increasing oxidative stress levels generated by culturing of the cells in normoxic conditions. […] This is in line with chronic stress caused by UV radiation.
The same is true for cells that are exposed to high doses of irradiation (FIG. 4F).

NEAT1 [2] = test: NEAT1 induction by Nutlin in mouse embryonic fibroblasts; assay type: cell-based; conditions: early passage (P3) MEFs
From the text: FIGS. 7A-7F. NEAT1 is required for primary cells immortalization. NEAT1 expression in induced in mouse embryonic fibroblasts (MEFs) upon Nutlin3a exposure (FIG. 7A) and replicative passaging on a 3T3 protocol (FIG. 7B).

NEAT1 promoter = test: p53 ChIP-seq in MCF-7 cells; assay type: cell-based, human; conditions: 24 hours
Experimental: (§1) FIG. 1 provides evidence that NEAT1 is a direct p53 target gene in the breast cancer cell line MCF-7. RNA-seq and p53 ChIPseq experiments have been carried out in MCF-7 cells following exposure to the MDM2 antagonist Nutlin3a for 24 hours.
(§2) This upregulation is mediated through the recruitment of p53 to the NEAT1 promoter as illustrated by the increase intensity of the p53-ChIP-seq peaks (green in FIG. 1).

NEAT1 [3] = test: NEAT1 induction by Nutlin3a (RNA-seq, qPCR) in human cell lines; assay type: cell-based
Experimental: as §1, §2
Both isoforms are affected, with the effect being stronger for the longer isoform (NEAT1_2).
(§3) To differentiate between the different isoforms of NEAT, the following strategy was used. All qPCRs labeled NEAT1 or NEAT1_1 were done with primers targeting the region of +/−2200 bp. The knock-down probes labeled as such also target the region between 2000 and 3756 bp. The RNA-FISH probeset used is made up of a large set of oligos targeting region 1-3756 bp. The primers and knock-down probes labeled NEAT1_2 (the long transcript) target a region of +/−21300 bp. The RNA-FISH probes (again a set of oligos) target the portion from 3800-11700 bp to avoid detection of shorter isoforms.

MCF-7 cells = test: Paraspeckles formation by NEAT1 RNA-FISH in Nutlin3a-treated MCF-7 cells; assay type: cell-based, human; conditions: for Nutlin-induced paraspeckles formation: MCF-7 following Nutlin exposure, gapmer transfection
Experimental: FIGS. 3A and 3B. […] FIG. 3A: MCF-7 cells were exposed to Nutlin3a (for 24 hours) and paraspeckles formation (red dots) was assessed by FISH-analysis with a NEAT1-specific probe set. Nuclei were counter-stained with DAPI (Blue). FIG. 3B: Quantification of paraspeckles formation in MCF-7 cells exposed to Nutlin3a before (mock) and after transfection of the cells with a control/scramble gapmer (scr) or gapmers targeting the NEAT1 transcripts (gap4 and gap6).
as §3
A similar observation in MCF-7 cells treated with p53 shRNA confirms again that this induction is p53-dependent (data not shown). Thus, p53 stimulates the formation of paraspeckles in these cells.

cancer cell lines [4] = test: Paraspeckles formation in cancer cell lines after gapmer transfection; assay type: cell-based, human
From the text: (§4) FIGS. 8A-8D. NEAT1 KD reduces the cell viability of human cancer cell lines. Gapmers 4 and 5 (gap 4 and 5) were used to knock-down the expression of all NEAT1 isoforms, and Gapmer 6 (gap 6) to specifically KD expression of the long isoform, in a series of cancer cell lines.
(§5) To further extend the anti-oncogenic effects observed in NEAT1 KO mice, NEAT1 was inhibited in different cancer cells using LNA-gapmers.

NEAT1 [5] = test: NEAT1 knock-down by LNA-gapmers (relative RNA levels, qPCR); assay type: cell-based, human; conditions: for NEAT1 expression (knock-down): gapmer transfection, cancer cell lines; for NEAT1 isoforms inhibited: long (NEAT1_2) versus short isoform
From the text: as §4
FIGS. 9A-9C. Knock-down of NEAT1 impairs HR and NHEJ DNA repair (FIG. 9A) but not Alt-NHEJ or SSA (FIG. 9B). […] SCR: scrambled control. Blue bars, all NEAT1 isoforms. Green bars, long NEAT1 isoform.
as §3, §5
To confirm the hypothesis that NEAT1 inhibition interferes with DNA repair, U2OS cells were exposed to different concentrations of the DNA-damaging agent bleomycin. In NEAT1-inhibited cells, DNA damage (as measured by γH2AX intensity) is indeed increased (FIG. 9C, last three panels). Thus, DNA repair is severely impaired in NEAT1 KD cells.

cancer cell lines [6] = test: Apoptosis, caspase 3/7 glow assay and FACS analysis; assay type: cell-based, human; conditions: gapmer transfection
From the text: as §4, §5

MCF-7 = test: WST1-assay of cell growth / metabolic activity; assay type: cell-based, human; conditions: gapmer transfection
From the text: as §4, §5

BJ = test: Paraspeckles formation in immortalized human diploid fibroblast cell line BJ; assay type: cell-based; conditions: BJ cells, LNA-gapmer transfection

With `CCN(CCO)CCCOc1ccc2c(Nc3cc(CC(=O)Nc4cccc(F)c4)[nH]n3)ncnc2c1` [AZD, AZD1152-HQPA] the NEAT1 induction (NEAT1 [1]; melanoma cells Mel 501 undergoing senescence) was “induced”.

In the case of `COc1cccc2c1C(=O)c1c(O)c3c(c(O)c1C2=O)C[C@@](O)(C(=O)CO)C[C@@H]3O[C@H]1C[C@H](N)[C@H](O)[C@H](C)O1` [Doxorubicin], the NEAT1 induction (NEAT1 [1]; higher dose (5 μM)) is reported as “not significantly” and the NEAT1 induction (NEAT1 [1]; low dose) is reported as “induced”.

`COc1ccc(C2=N[C@@H](c3ccc(Cl)cc3)[C@@H](c3ccc(Cl)cc3)N2C(=O)N2CCNC(=O)C2)c(OC(C)C)c1` [Nutlin3a] was tested, and the “expression of NEAT1” value (NEAT1 [2]) was “induces expression of NEAT1”, the “recruitment of p53 to the NEAT1 promoter (p53-ChIP peaks)” value (NEAT1 promoter) was “p53 is directly recruited to the NEAT1 promoter” and the “transcription of NEAT1 (RNA-seq)” value (NEAT1 [3]; MCF-7 cells, 24 hours) was “induces transcription of NEAT1”. The “expression of NEAT1” value (NEAT1 [3]; U2OS, A459, human ES cells, BJ) was “induces expression of NEAT1”, the NEAT1 induction (NEAT1 [3]; colorectal cancer cell line HCT116) was “NEAT1 induction in response to Nutlin can be seen” and the NEAT1 induction (NEAT1 [3]; isogenic p53 KO HCT116 cell line) was “not in an isogenic p53 KO HCT116 cell line”. The paraspeckles formation (MCF-7 cells; MCF-7 cells, Nutlin alone) was “induces paraspeckles formation”.

“NEAT1-Gapmer5: LNA-gapmer, SEQ ID NO: 3, TAAGCACTTTGGAAAG; inhibits both long and short isoform of NEAT1 (LNA gapmer, LNA positions and linkages not given here)” was tested, and the paraspeckles formation (cancer cell lines [4]) was “robust decrease”, the “NEAT1 expression (knock-down)” value (NEAT1 [5]; listed as gap 5) was “efficiently knockdown NEAT1; also recorded: robust decrease in NEAT1 expression” and the NEAT1 isoforms inhibited (NEAT1 [5]) was “inhibit both the long and short isoform of NEAT1”. For the same molecule, the “apoptosis (caspase 3/7 glow assay, FACS analysis)” value (cancer cell lines [6]) was “induction of apoptosis” and the “MCF-7 growth (WST1-assay)” value (MCF-7) was “decrease MCF-7 growth significantly”.

In the case of `C=C(C)[C@H]1Cc2c(ccc3c2O[C@@H]2COc4cc(OC)c(OC)cc4[C@@H]2C3=O)O1` [rotenone], the NEAT1 induction (NEAT1 [1]; BJ cells, oxidative stress) is reported as “induced”.

For “NEAT1-Gapmer6: LNA-gapmer, SEQ ID NO: 4, CTCACACGTCCATCT; specific for the long isoform of NEAT1 (LNA gapmer, LNA positions and linkages not given here)”, the “NEAT1 expression (knock-down)” value (NEAT1 [5]) was “efficiently knockdown NEAT1”, the NEAT1 isoforms inhibited (NEAT1 [5]) was “specific for the long isoform” and the KD efficiency (NEAT1 [5]; long transcript NEAT1_2, U2OS cells) was “about 50%”. The Nutlin-induced paraspeckles formation (MCF-7 cells) was “dramatically attenuated”, the formation of paraspeckles (BJ) was “decrease the formation of paraspeckles” and the “MCF-7 growth (WST1-assay)” value (MCF-7) was “decrease MCF-7 growth significantly”.

“NEAT1-Gapmer4: LNA-gapmer, SEQ ID NO: 2, GACGTAACAGAATT; inhibits both long and short isoform of NEAT1 (LNA gapmer, LNA positions and linkages not given here)” was tested, and the paraspeckles formation (cancer cell lines [4]) was “robust decrease”, the “NEAT1 expression (knock-down)” value (NEAT1 [5]; listed as gap 4) was “efficiently knockdown NEAT1; also recorded: robust decrease in NEAT1 expression” and the NEAT1 isoforms inhibited (NEAT1 [5]) was “inhibit both the long and short isoform of NEAT1”. For the same molecule, the “apoptosis (caspase 3/7 glow assay, FACS analysis)” value (cancer cell lines [6]) was “induction of apoptosis”, the Nutlin-induced paraspeckles formation (MCF-7 cells) was “dramatically attenuated” and the formation of paraspeckles (BJ) was “decrease the formation of paraspeckles”. For the same molecule, the “MCF-7 growth (WST1-assay)” value (MCF-7) was “decrease MCF-7 growth significantly”.
